# Reference: ChEMBL document CHEMBL2331514, “Structure-based design and synthesis of novel pseudosaccharine derivatives as antiproliferative agents and kinase inhibitors” (Eur J Med Chem, 2013)
# Legend:
# Type in all cases: functional
# MDA-MB-468 = assay: Cytotoxicity against human MDA-MB-468 cells assessed as growth inhibition at 10 uM after 48 hrs by SRB assay; conditions: MDA-MB-468, 48 h, read-out: GI
# T47D = assay: Cytotoxicity against human T47D cells assessed as growth inhibition at 10 uM after 48 hrs by SRB assay; conditions: read-out: GI
# Hs-578T = assay: Cytotoxicity against human Hs578T cells assessed as growth inhibition at 10 uM after 48 hrs by SRB assay; conditions: read-out: GI
# BT-549 = assay: Cytotoxicity against human BT549 cells assessed as growth inhibition at 10 uM after 48 hrs by SRB assay; conditions: BT-549, 48 h, read-out: GI
# MDA-MB-231 = assay: Cytotoxicity against human MDA-MB-231 cells assessed as growth inhibition at 10 uM after 48 hrs by SRB assay; conditions: MDA-MB-231, 48 h, read-out: GI
# DU-145 = assay: Cytotoxicity against human DU145 cells assessed as growth inhibition at 10 uM after 48 hrs by SRB assay; conditions: DU-145, 48 h, read-out: GI
# MCF7 = assay: Cytotoxicity against human MCF7 cells assessed as growth inhibition at 10 uM after 48 hrs by SRB assay; conditions: MCF7, 48 h, read-out: GI
# PC-3 = assay: Cytotoxicity against human PC3 cells assessed as growth inhibition at 10 uM after 48 hrs by SRB assay; conditions: PC-3, 48 h, read-out: GI
# UO-31 = assay: Cytotoxicity against human UO31 cells assessed as growth inhibition at 10 uM after 48 hrs by SRB assay; conditions: UO-31, 48 h, read-out: GI
# SN12C = assay: Cytotoxicity against human SN12C cells assessed as growth inhibition at 10 uM after 48 hrs by SRB assay; conditions: read-out: GI
# ACHN = assay: Cytotoxicity against human ACHN cells assessed as growth inhibition at 10 uM after 48 hrs by SRB assay; conditions: read-out: GI
# 786-0 = assay: Cytotoxicity against human 786-0 cells assessed as growth inhibition at 10 uM after 48 hrs by SRB assay; conditions: 786-0, 48 h, read-out: GI
# SK-OV-3 = assay: Cytotoxicity against human SKOV3 cells assessed as growth inhibition at 10 uM after 48 hrs by SRB assay; conditions: SK-OV-3, 48 h, read-out: GI
# [1] = Cytotoxicity against human NCI-ADR-RES cells assessed as growth inhibition at 10 uM after 48 hrs by SRB assay; conditions: read-out: GI
# OVCAR-8 = assay: Cytotoxicity against human OVCAR8 cells assessed as growth inhibition at 10 uM after 48 hrs by SRB assay; conditions: OVCAR-8, 48 h, read-out: GI
# OVCAR-5 = assay: Cytotoxicity against human OVCAR5 cells assessed as growth inhibition at 10 uM after 48 hrs by SRB assay; conditions: OVCAR-5, 48 h, read-out: GI
# OVCAR-3 = assay: Cytotoxicity against human OVCAR3 cells assessed as growth inhibition at 10 uM after 48 hrs by SRB assay; conditions: OVCAR-3, 48 h, read-out: GI
# UACC-62 = assay: Cytotoxicity against human UACC62 cells assessed as growth inhibition at 10 uM after 48 hrs by SRB assay; conditions: UACC-62, 48 h, read-out: GI
# UACC-257 = assay: Cytotoxicity against human UACC257 cells assessed as growth inhibition at 10 uM after 48 hrs by SRB assay; conditions: UACC-257, 48 h, read-out: GI
# MDA-MB-435 = assay: Cytotoxicity against human MDA-MB-435 cells assessed as growth inhibition at 10 uM after 48 hrs by SRB assay; conditions: MDA-MB-435, 48 h, read-out: GI
# SK-MEL-2 = assay: Cytotoxicity against human SK-MEL-2 cells assessed as growth inhibition at 10 uM after 48 hrs by SRB assay; conditions: SK-MEL-2, 48 h, read-out: GI
# M14 = assay: Cytotoxicity against human M14 cells assessed as growth inhibition at 10 uM after 48 hrs by SRB assay; conditions: M14, 48 h, read-out: GI
# SF-539 = assay: Cytotoxicity against human SF539 cells assessed as growth inhibition at 10 uM after 48 hrs by SRB assay; conditions: SF-539, 48 h, read-out: GI
# SF-295 = assay: Cytotoxicity against human SF295 cells assessed as growth inhibition at 10 uM after 48 hrs by SRB assay; conditions: SF-295, 48 h, read-out: GI
# SW-620 = assay: Cytotoxicity against human SW620 cells assessed as growth inhibition at 10 uM after 48 hrs by SRB assay; conditions: SW-620, 48 h, read-out: GI
# KM12 = assay: Cytotoxicity against human KM12 cells assessed as growth inhibition at 10 uM after 48 hrs by SRB assay; conditions: KM12, 48 h, read-out: GI
# HT-29 = assay: Cytotoxicity against human HT-29 cells assessed as growth inhibition at 10 uM after 48 hrs by SRB assay; conditions: HT-29, 48 h, read-out: GI
# HCT-15 = assay: Cytotoxicity against human HCT15 cells assessed as growth inhibition at 10 uM after 48 hrs by SRB assay; conditions: HCT-15, 48 h, read-out: GI
# HCT-116 = assay: Cytotoxicity against human HCT116 cells assessed as growth inhibition at 10 uM after 48 hrs by SRB assay; conditions: HCT-116, 48 h, read-out: GI
# HCC 2998 = assay: Cytotoxicity against human HCC2998 cells assessed as growth inhibition at 10 uM after 48 hrs by SRB assay; conditions: HCC 2998, 48 h, read-out: GI
# COLO 205 = assay: Cytotoxicity against human COLO205 cells assessed as growth inhibition at 10 uM after 48 hrs by SRB assay; conditions: COLO 205, 48 h, read-out: GI
# NCI-H460 = assay: Cytotoxicity against human NCI-H460 cells assessed as growth inhibition at 10 uM after 48 hrs by SRB assay; conditions: NCI-H460, 48 h, read-out: GI
# NCI-H23 = assay: Cytotoxicity against human NCI-H23 cells assessed as growth inhibition at 10 uM after 48 hrs by SRB assay; conditions: NCI-H23, 48 h, read-out: GI
# NCI-H226 = assay: Cytotoxicity against human NCI-H226 cells assessed as growth inhibition at 10 uM after 48 hrs by SRB assay; conditions: NCI-H226, 48 h, read-out: GI
# [2] = Cytotoxicity against human EKVX cells assessed as growth inhibition at 10 uM after 48 hrs by SRB assay; conditions: read-out: GI
# SR = assay: Cytotoxicity against human SR cells assessed as growth inhibition at 10 uM after 48 hrs by SRB assay; conditions: read-out: GI
# MOLT-4 = assay: Cytotoxicity against human MOLT4 cells assessed as growth inhibition at 10 uM after 48 hrs by SRB assay; conditions: MOLT-4, 48 h, read-out: GI
# CCRF-CEM = assay: Cytotoxicity against human CCRF-CEM cells assessed as growth inhibition at 10 uM after 48 hrs by SRB assay; conditions: read-out: GI
SMILES,inhibition of growth at 10 µM (MDA-MB-468) [%],inhibition of growth at 10 µM (T47D) [%],inhibition of growth at 10 µM (Hs-578T) [%],inhibition of growth at 10 µM (BT-549) [%],inhibition of growth at 10 µM (MDA-MB-231) [%],inhibition of growth at 10 µM (DU-145) [%],inhibition of growth at 10 µM (MCF7) [%],inhibition of growth at 10 µM (PC-3) [%],inhibition of growth at 10 µM (UO-31) [%],inhibition of growth at 10 µM (SN12C) [%],inhibition of growth at 10 µM (ACHN) [%],inhibition of growth at 10 µM (786-0) [%],inhibition of growth at 10 µM (SK-OV-3) [%],inhibition of growth at 10 µM [1] [%],inhibition of growth at 10 µM (OVCAR-8) [%],inhibition of growth at 10 µM (OVCAR-5) [%],inhibition of growth at 10 µM (OVCAR-3) [%],inhibition of growth at 10 µM (UACC-62) [%],inhibition of growth at 10 µM (UACC-257) [%],inhibition of growth at 10 µM (MDA-MB-435) [%],also measured
O=C(Nc1ccc(NC2=NS(=O)(=O)c3ccccc32)cc1)Nc1cccc(Br)c1,60,60,35,23,47,19,44,16,13,21,3,27,4,8,17,13,22,19,9,11,inhibition of growth at 10 µM (SK-MEL-2): 1%; inhibition of growth at 10 µM (M14): 22%; inhibition of growth at 10 µM (SF-539): 36%; inhibition of growth at 10 µM (SF-295): 20%; inhibition of growth at 10 µM (SW-620): -2%; inhibition of growth at 10 µM (KM12): 88%; inhibition of growth at 10 µM (HT-29): 11%; inhibition of growth at 10 µM (HCT-15): -6%; inhibition of growth at 10 µM (HCT-116): 22%; inhibition of growth at 10 µM (HCC 2998): 5%; inhibition of growth at 10 µM (COLO 205): -11%; inhibition of growth at 10 µM (NCI-H460): 1%; inhibition of growth at 10 µM (NCI-H23): 14%; inhibition of growth at 10 µM (NCI-H226): 20%; inhibition of growth at 10 µM [2]: -4%; inhibition of growth at 10 µM (SR): 27%; inhibition of growth at 10 µM (MOLT-4): 37%; inhibition of growth at 10 µM (CCRF-CEM): 39%
O=C(Nc1ccccc1)Nc1ccc(NC2=NS(=O)(=O)c3ccccc32)cc1,-11,10,-9,3,11,-1,10,-3,7,0,-8,3,-7,-2,-5,-2,-11,-7,-1,0,inhibition of growth at 10 µM (SK-MEL-2): -14%; inhibition of growth at 10 µM (M14): -3%; inhibition of growth at 10 µM (SF-539): 5%; inhibition of growth at 10 µM (SF-295): 1%; inhibition of growth at 10 µM (SW-620): -4%; inhibition of growth at 10 µM (KM12): -6%; inhibition of growth at 10 µM (HT-29): 1%; inhibition of growth at 10 µM (HCT-15): -7%; inhibition of growth at 10 µM (HCT-116): -6%; inhibition of growth at 10 µM (HCC 2998): -7%; inhibition of growth at 10 µM (COLO 205): -19%; inhibition of growth at 10 µM (NCI-H460): -3%; inhibition of growth at 10 µM (NCI-H23): 3%; inhibition of growth at 10 µM (NCI-H226): 10%; inhibition of growth at 10 µM [2]: 0%; inhibition of growth at 10 µM (SR): 3%; inhibition of growth at 10 µM (MOLT-4): 4%; inhibition of growth at 10 µM (CCRF-CEM): 5%
COc1ccc(NC(=O)Nc2ccc(NC3=NS(=O)(=O)c4ccccc43)cc2)cc1,-7,5,-4,15,-13,3,13,-5,1,5,-3,19,-20,-6,-11,-10,-2,-3,-19,6,inhibition of growth at 10 µM (SK-MEL-2): -4%; inhibition of growth at 10 µM (M14): -8%; inhibition of growth at 10 µM (SF-539): 14%; inhibition of growth at 10 µM (SF-295): 18%; inhibition of growth at 10 µM (SW-620): -6%; inhibition of growth at 10 µM (KM12): -1%; inhibition of growth at 10 µM (HT-29): 17%; inhibition of growth at 10 µM (HCT-15): 3%; inhibition of growth at 10 µM (HCT-116): 5%; inhibition of growth at 10 µM (HCC 2998): -3%; inhibition of growth at 10 µM (COLO 205): -36%; inhibition of growth at 10 µM (NCI-H460): 1%; inhibition of growth at 10 µM (NCI-H23): 8%; inhibition of growth at 10 µM (NCI-H226): -3%; inhibition of growth at 10 µM [2]: 2%; inhibition of growth at 10 µM (SR): 11%; inhibition of growth at 10 µM (MOLT-4): 11%; inhibition of growth at 10 µM (CCRF-CEM): 14%
